Measured values taken from US20030022812A1, “Treating pain by targeting hyperpolarization-activated, cyclic nucleotide-gated channels” (priority 2001, published 2003).

Molecular target: T1, human HCN1 (Homo sapiens, UniProt O60741)
T1 construct: expressed in transfected cells; host or cells: Xenopus laevis oocytes injected with cRNA transcribed from pGEMHE-human HCN1
T1 sequence (O60741 1-890): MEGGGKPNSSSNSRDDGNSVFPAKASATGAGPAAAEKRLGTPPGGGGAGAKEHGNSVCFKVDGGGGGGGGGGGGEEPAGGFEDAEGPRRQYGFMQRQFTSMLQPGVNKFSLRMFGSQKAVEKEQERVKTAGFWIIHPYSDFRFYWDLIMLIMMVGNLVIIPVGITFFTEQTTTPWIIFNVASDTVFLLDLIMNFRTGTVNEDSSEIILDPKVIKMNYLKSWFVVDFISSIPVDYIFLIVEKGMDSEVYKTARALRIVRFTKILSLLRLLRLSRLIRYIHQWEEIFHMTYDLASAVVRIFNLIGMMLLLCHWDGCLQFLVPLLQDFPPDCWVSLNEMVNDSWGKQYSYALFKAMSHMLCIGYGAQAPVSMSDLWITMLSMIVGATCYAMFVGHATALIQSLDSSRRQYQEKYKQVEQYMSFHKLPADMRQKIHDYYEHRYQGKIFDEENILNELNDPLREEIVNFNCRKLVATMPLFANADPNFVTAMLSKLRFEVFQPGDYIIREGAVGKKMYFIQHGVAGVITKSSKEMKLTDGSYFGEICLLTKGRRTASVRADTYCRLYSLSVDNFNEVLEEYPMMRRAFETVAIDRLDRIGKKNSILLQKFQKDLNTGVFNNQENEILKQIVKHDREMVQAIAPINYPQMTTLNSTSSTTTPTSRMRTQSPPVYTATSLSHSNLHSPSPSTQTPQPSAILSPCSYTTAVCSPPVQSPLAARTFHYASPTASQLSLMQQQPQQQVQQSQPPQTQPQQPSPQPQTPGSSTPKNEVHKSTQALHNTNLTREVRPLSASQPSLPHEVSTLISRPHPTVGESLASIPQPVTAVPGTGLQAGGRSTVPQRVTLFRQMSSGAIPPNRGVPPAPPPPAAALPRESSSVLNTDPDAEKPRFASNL
Assay: Two-electrode voltage clamp of Xenopus oocytes injected with human HCN1 cRNA
Assay type: cell-based
Settings: Cs+ 3 mM; for block of HCN1 currents: n=3
Description: Xenopus laevis oocytes were prepared and injected using standard methods previously described and known in the art [Fraser et al. (1993). Electrophysiology: a practical approach. D. I. Wallis, IRL Press at Oxford University Press, Oxford: 65-86]. Ovarian lobes from adult female Xenopus laevis (Nasco, Fort Atkinson, Wis.) were teased apart, rinsed several times in nominally Ca-free saline containing: 82.5 mM NaCl, 2.5 mM KCl, 1 mM MgCl2, 5 mM HEPES, adjusted to pH 7.0 with NaOH (OR-2), and gently shaken in OR-2 containing 0.2% collagenase Type 1 (ICN Biomedicals, Aurora, Ohio) for 2-5 hours. When approximately 50% of the follicular layers were removed, Stage V and VI oocytes were selected and rinsed in media consisting of 75% OR-2 and 25% ND-96. The ND-96 contained: 100 mM NaCl, 2 mM KCl, 1 mM MgCl2, 1.8 mM CaCl2, 5 mM HEPES, 2.5 mM Na pyruvate, gentamicin (50 ug/ml), adjusted to pH 7.0 with NaOH. […] For in vitro transcription, PGEM HE (Liman et al., (1992) Neuron 9: 861-71) containing human HCN1 was linearized with NheI and transcribed with T7 RNA polymerase (Promega) in the presence of the cap analog m7G(5′)ppp(5′)G. The synthesized cRNA was precipitated with ammonium acetate and isopropanol, and resuspended in 50 μl nuclease-free water. cRNA was quantified using formaldehyde gels (1% agarose, 1×MOPS, 3% formaldehyde) against 1,2 and 5 μl RNA markers (Gibco BRL, 0.24-9.5 Kb).
Oocytes were injected with 50 nl of human HCN1 RNA (1-10 ng). Control oocytes were injected with 50 nl of water. Oocytes were incubated for 2 days in ND-96 before analysis for expression of human HCN1. Incubations and collagenase digestion were carried out at room temperature. Injected oocytes were maintained in 48 well cell culture clusters (Costar; Cambridge, Mass.) at 18° C. Whole cell voltage-activated currents were measured 2 days after injection with a conventional two-electrode voltage clamp (GeneClamp500, Axon Instruments, Foster City, Calif.) using standard methods previously described and known in the art (Dascal et al., (1987) Pflugers Arch 409: 512-20). The microelectrodes, which had resistances of ˜1 MΩ, were filled with 3 M KCl. Cells were continuously perfused with ND96 at ˜10 ml/min at room temperature. Membrane voltage was clamped at −30 mV unless indicated.
Oocytes were challenged with a series of hyperpolarizing voltage steps from a holding potential of −30 mV. Voltage steps (800 msec duration) to −40 through −180 mV in 20 mV intervals were applied to oocytes at a sampling rate of […]. Hyperpolarizing voltage steps activated an inward current having a threshold of about −60 mV. […] Cs^+ blocked HCN1 currents by 94, 92 and 90% when Ih was evoked by stepping to −80, −100 and −120 mV, respectively. […]

[Cl-].[Cs+] [Cs^+, CsCl]
effect on endogenous oocyte inward currents: no effect | block of HCN1 currents (Ih evoked by stepping to −80 mV): 94% | block of HCN1 currents (Ih evoked by stepping to −100 mV): 92% | block of HCN1 currents (Ih evoked by stepping to −120 mV): 90%
